Assay results: the NIST ThermoML archive (doi:10.1021/je050413l)
Several values for one entry are separate records, joined by “and”; a condition that tells them apart may be missing. Equal values may be shown once. Numbers after ± are expanded uncertainties.

Legend:
[1] = 303.15 K, Liquid; for speed of sound / viscosity: 101 kPa; for mass density: 101.33 kPa, Pycnometric method
[2] = φn = volume fraction of the nth substance listed; settings: 303.15 K, 101 kPa, Liquid
[3] = xn = mol fraction of the nth substance listed; settings: 303.15 K, 101 kPa, Liquid, Direct dilatometry

Cc1ccccc1Cl [2-chlorotoluene]
[1]
Settings	mass density [kg/m3]	speed of sound [m/s]	viscosity [mPa·s]
–	1072.77 ± 2.8	1284 ± 7	0.887 ± 0.031

Cc1ccccc1Cl [2-chlorotoluene] + CC(=O)c1ccccc1
[2], φ2 = 0
Settings	speed of sound [m/s]	viscosity [mPa·s]
–	1284 ± 7	0.887 ± 0.031

Cc1ccccc1[N+](=O)[O-] [2-nitrotoluene]
[1]
Settings	mass density [kg/m3]	viscosity [mPa·s]
–	1153.26 ± 3	1.911 ± 0.065

Cc1ccccc1[N+](=O)[O-] [2-nitrotoluene] + CC(=O)c1ccccc1
Settings	excess molar volume [m3/mol]	speed of sound [m/s]	viscosity [mPa·s]
[2], φ2 = 0	–	–	1.911 ± 0.065
[2], φ2 = 0.0805	–	2017 ± 11	1.91 ± 0.065
[2], φ2 = 0.1011	–	1997 ± 11	1.903 ± 0.065
[2], φ2 = 0.2132	–	1889 ± 10	1.857 ± 0.063
[2], φ2 = 0.3245	–	1803 ± 10	1.817 ± 0.062
[2], φ2 = 0.4197	–	1737 ± 10	1.781 ± 0.061
[2], φ2 = 0.5086	–	1681 ± 10	1.747 ± 0.06
[2], φ2 = 0.6196	–	1622 ± 10	1.701 ± 0.058
[2], φ2 = 0.7297	–	1568 ± 9	1.652 ± 0.057
[2], φ2 = 0.7911	–	1541 ± 9	1.624 ± 0.056
[2], φ2 = 0.8704	–	1508 ± 9	1.582 ± 0.054
[3], x2 = 0.0812	1.1e-08 ± 6e-09	–	–
[3], x2 = 0.1019	1.5e-08 ± 6e-09	–	–
[3], x2 = 0.2147	2.4e-08 ± 6e-09	–	–
[3], x2 = 0.3265	3.3e-08 ± 6e-09	–	–
[3], x2 = 0.4219	3.9e-08 ± 6e-09	–	–
[3], x2 = 0.5109	4.2e-08 ± 6e-09	–	–
[3], x2 = 0.6217	3.7e-08 ± 6e-09	–	–
[3], x2 = 0.7315	2.6e-08 ± 6e-09	–	–
[3], x2 = 0.7926	2e-08 ± 6e-09	–	–
[3], x2 = 0.8714	1.1e-08 ± 6e-09	–	–

Cc1cccc(Cl)c1 [3-chlorotoluene]
[1]
Settings	mass density [kg/m3]	speed of sound [m/s]	viscosity [mPa·s]
–	1065.22 ± 2.8	1280 ± 7	0.782 ± 0.028

Cc1cccc(Cl)c1 [3-chlorotoluene] + CC(=O)c1ccccc1
Settings	excess molar volume, [3] [m3/mol]	speed of sound, [2] [m/s]	viscosity, [2] [mPa·s]
x2 = 0.0524	1e-08 ± 6e-09	–	–
x2 = 0.103	1.5e-08 ± 6e-09	–	–
x2 = 0.2141	2.3e-08 ± 6e-09	–	–
x2 = 0.3119	2.9e-08 ± 6e-09	–	–
x2 = 0.4266	3.3e-08 ± 6e-09	–	–
x2 = 0.5009	3.4e-08 ± 6e-09	–	–
x2 = 0.6174	3.2e-08 ± 6e-09	–	–
x2 = 0.705	2.8e-08 ± 6e-09	–	–
x2 = 0.8519	1.5e-08 ± 6e-09	–	–
x2 = 0.952	6e-09 ± 6e-09	–	–
φ2 = 0	–	1280 ± 7	0.782 ± 0.028
φ2 = 0.052	–	1297 ± 7	0.891 ± 0.032
φ2 = 0.1022	–	1315 ± 7	0.901 ± 0.032
φ2 = 0.2127	–	1346 ± 8	1.002 ± 0.035
φ2 = 0.3101	–	1370 ± 8	1.073 ± 0.038
φ2 = 0.4246	–	1395 ± 8	1.16 ± 0.04
φ2 = 0.4988	–	1412 ± 8	1.222 ± 0.042
φ2 = 0.6154	–	1431 ± 8	1.31 ± 0.045
φ2 = 0.7033	–	1438 ± 8	1.37 ± 0.047
φ2 = 0.8508	–	1449 ± 8	1.458 ± 0.05
φ2 = 0.9516	–	1455 ± 8	1.503 ± 0.052

Cc1cccc([N+](=O)[O-])c1 [3-nitrotoluene]
[1]
Settings	mass density [kg/m3]	viscosity [mPa·s]
–	1147.62 ± 3	1.775 ± 0.061

Cc1cccc([N+](=O)[O-])c1 [3-nitrotoluene] + CC(=O)c1ccccc1
Settings	excess molar volume [m3/mol]	speed of sound [m/s]	viscosity [mPa·s]
[2], φ2 = 0	–	–	1.775 ± 0.061
[2], φ2 = 0.0972	–	1987 ± 11	1.748 ± 0.06
[2], φ2 = 0.116	–	1972 ± 11	1.745 ± 0.06
[2], φ2 = 0.2051	–	1892 ± 10	1.731 ± 0.059
[2], φ2 = 0.3085	–	1808 ± 10	1.713 ± 0.059
[2], φ2 = 0.4191	–	1737 ± 10	1.694 ± 0.058
[2], φ2 = 0.5383	–	1666 ± 10	1.666 ± 0.057
[2], φ2 = 0.6446	–	1608 ± 9	1.64 ± 0.056
[2], φ2 = 0.7076	–	1580 ± 9	1.623 ± 0.056
[2], φ2 = 0.7994	–	1539 ± 9	1.594 ± 0.055
[2], φ2 = 0.886	–	1503 ± 9	1.564 ± 0.054
[3], x2 = 0.0984	1.8e-08 ± 6e-09	–	–
[3], x2 = 0.1174	2.1e-08 ± 6e-09	–	–
[3], x2 = 0.2074	3e-08 ± 6e-09	–	–
[3], x2 = 0.3115	3.9e-08 ± 6e-09	–	–
[3], x2 = 0.4225	4.7e-08 ± 6e-09	–	–
[3], x2 = 0.5417	5e-08 ± 6e-09	–	–
[3], x2 = 0.6478	4.3e-08 ± 6e-09	–	–
[3], x2 = 0.7105	3.5e-08 ± 6e-09	–	–
[3], x2 = 0.8016	2.5e-08 ± 6e-09	–	–
[3], x2 = 0.8874	1.4e-08 ± 6e-09	–	–

Cc1ccc(Cl)cc1 [4-chlorotoluene]
[1]
Settings	mass density [kg/m3]	speed of sound [m/s]	viscosity [mPa·s]
–	1060.54 ± 2.8	1271 ± 12	0.9 ± 0.032

Cc1ccc(Cl)cc1 [4-chlorotoluene] + CC(=O)c1ccccc1
Settings	excess molar volume, [3] [m3/mol]	speed of sound, [2] [m/s]	viscosity, [2] [mPa·s]
x2 = 0.087	1.6e-08 ± 6e-09	–	–
x2 = 0.1206	2e-08 ± 6e-09	–	–
x2 = 0.2175	2.7e-08 ± 6e-09	–	–
x2 = 0.3009	3.4e-08 ± 6e-09	–	–
x2 = 0.4017	4.1e-08 ± 6e-09	–	–
x2 = 0.5224	4.4e-08 ± 6e-09	–	–
x2 = 0.6211	3.9e-08 ± 6e-09	–	–
x2 = 0.7025	3.2e-08 ± 6e-09	–	–
x2 = 0.8214	2.1e-08 ± 6e-09	–	–
x2 = 0.8774	1.6e-08 ± 6e-09	–	–
φ2 = 0	–	1271 ± 12	0.9 ± 0.032
φ2 = 0.0807	–	1304 ± 12	0.903 ± 0.032
φ2 = 0.1193	–	1314 ± 12	1.011 ± 0.035
φ2 = 0.2153	–	1343 ± 12	1.058 ± 0.037
φ2 = 0.2982	–	1371 ± 12	1.118 ± 0.039
φ2 = 0.3986	–	1406 ± 12	1.198 ± 0.042
φ2 = 0.5192	–	1419 ± 12	1.286 ± 0.045
φ2 = 0.6181	–	1430 ± 12	1.352 ± 0.047
φ2 = 0.6998	–	1440 ± 12	1.4 ± 0.048
φ2 = 0.8195	–	1448 ± 13	1.469 ± 0.051
φ2 = 0.876	–	1453 ± 13	1.496 ± 0.051

CC(=O)c1ccccc1 [acetophenone]
[1]
Settings	mass density [kg/m3]	speed of sound	viscosity [mPa·s]
–	1019.43 ± 2.7	1460 ± 8 m/s and 1466 ± 8 m/s	1.511 ± 0.052

CC(=O)c1ccccc1 [acetophenone] + Cc1ccc(Cl)cc1
[2], φ1 = 1
Settings	speed of sound [m/s]	viscosity [mPa·s]
–	1460 ± 13	1.511 ± 0.052

CC(=O)c1ccccc1 [acetophenone] + Cc1cccc(Cl)c1
[2], φ1 = 1
Settings	speed of sound [m/s]	viscosity [mPa·s]
–	1460 ± 8	1.511 ± 0.052

CC(=O)c1ccccc1 [acetophenone] + Cc1cccc([N+](=O)[O-])c1
[2], φ1 = 1
Settings	speed of sound [m/s]	viscosity [mPa·s]
–	1466 ± 9	1.511 ± 0.052

CC(=O)c1ccccc1 [acetophenone] + Cc1ccccc1Cl
Settings	excess molar volume, [3] [m3/mol]	speed of sound, [2] [m/s]	viscosity, [2] [mPa·s]
x1 = 0.0901	6e-09 ± 6e-09	–	–
x1 = 0.151	9e-09 ± 6e-09	–	–
x1 = 0.2271	1.3e-08 ± 6e-09	–	–
x1 = 0.3205	1.6e-08 ± 6e-09	–	–
x1 = 0.4021	1.8e-08 ± 6e-09	–	–
x1 = 0.5219	2e-08 ± 6e-09	–	–
x1 = 0.6224	2e-08 ± 6e-09	–	–
x1 = 0.702	1.8e-08 ± 6e-09	–	–
x1 = 0.8194	1.5e-08 ± 6e-09	–	–
x1 = 0.9005	9e-09 ± 6e-09	–	–
φ1 = 0.09	–	1310 ± 7	0.901 ± 0.032
φ1 = 0.1508	–	1326 ± 7	0.949 ± 0.033
φ1 = 0.2269	–	1345 ± 8	0.999 ± 0.035
φ1 = 0.3202	–	1368 ± 8	1.066 ± 0.037
φ1 = 0.4018	–	1387 ± 8	1.123 ± 0.039
φ1 = 0.5216	–	1409 ± 8	1.225 ± 0.043
φ1 = 0.6221	–	1423 ± 8	1.305 ± 0.045
φ1 = 0.7017	–	1432 ± 8	1.41 ± 0.049
φ1 = 0.8192	–	1448 ± 8	1.465 ± 0.05
φ1 = 0.9004	–	1451 ± 8	1.502 ± 0.052
φ1 = 1	–	1460 ± 8	1.511 ± 0.052

CC(=O)c1ccccc1 [acetophenone] + Cc1ccccc1[N+](=O)[O-]
[2], φ1 = 1
Settings	speed of sound [m/s]	viscosity [mPa·s]
–	1460 ± 9	1.511 ± 0.052
